Measured values published in patent publication US4071622A, “Treatment of a mammary or DMBA inducible tumor” (Abbott Laboratories, priority 1976, dated 1978).

Test system: DMBA-induced tumors
Assay: Regression of DMBA-induced tumors in female rats, 11-day treatment
Format: in vivo
Details: for total tumor volume of the treated group, day 3 / total tumor volume of the treated group, day 6 / total tumor volume of the treated group, day 10 / total tumor volume of the treated group upon sacrifice, day 11 / tumor volume of one specific animal, day 3 / tumor volume of one specific animal, day 6 / tumor volume of one specific animal, day 10 / tumor volume of one specific animal, day 11: 20 μg/day s.c., b.i.d.; for total tumor volume of the treated group, day 3: day 3 of treatment; for total tumor volume of the treated group, day 6: day 6 of treatment; for total tumor volume of the treated group, day 10: day 10 of treatment; for total tumor volume of the treated group upon sacrifice, day 11 / tumor volume of one specific animal, day 11: day 11, sacrifice; for total tumor volume of the treated group at the beginning of the treatment: day 0, 100 days after 20 mg DMBA intragastric, all tumors of the group summed; for tumor volume of one specific animal at start of treatment / tumor volume of one specific animal, day 3 / tumor volume of one specific animal, day 6 / tumor volume of one specific animal, day 10 / tumor volume of one specific animal, day 11: one animal of the group; for total volume reduction in one specific animal: start to day 11
Method: In a group of 3 female, 50-day old rats, tumors were induced by intragastric feeding of 20 mg of 7,12-dimethylbenzanthracene (DMBA) in 2 ml. of sesame oil. The animals developed tumors within 10-12 weeks. All animals were maintained on normal rations for 100 days following the DMBA administration, at which time treatment with the compound identified as Compound A was started, using a b.i.d. regimen for 11 days, 20 μg/day, the compound being administered subcutaneously dissolved in isotonic saline containing 0.1% (wt/vol.) of bovine serum albumin.
The three animals carried a total of 7 tumors at the beginning of the treatment with a total volume of 39.2 cc. After 3 days, the 7 tumors had reduced to a volume of 26.7 cc; on day 6 the volume had reduced to 18.6 cc, on day 10 it was 8.7 cc, which was also the volume upon sacrifice of the animals on day 11.
The animals were prepared and pre-treated in the same fashion as those in Example 2, but Compound B was used for the 11-day treatment. The three rats used started the regimen with a total of 7 tumors of 43.3 cc total volume. Again, the tumor volumes were measured on days 3, 6, 10 and upon sacrifice, showing 37.5, 24.9, 16.3 and 15.0 cc respectively.
Except for the use of Compound C, all steps of the preceding two examples were repeated. The total of 13.4 cc of volume of 3 tumors in two rats was reduced to 10.1, 5.4, 6.4 and 5.5 cc on days 3, 6, 10 and 11. […] However, that tumor was found reduced to 3.0 cc on day 11. A third animal treated in the same fashion started out the regimen with 4 tumors of 28.1 cc which reduced to 15 cc by day 6. The animal died thereafter of causes diagnosed as having no connection with the tumors or the treatment (chronic murine pneumonia).

| Compound | total tumor volume of the treated group, day 3 [cc] | total tumor volume of the treated group, day 6 [cc] | total tumor volume of the treated group, day 10 [cc] | total tumor volume of the treated group upon sacrifice, day 11 [cc] | total tumor volume of the treated group at the beginning of the treatment (baseline) [cc] | tumor volume of one specific animal at start of treatment (baseline) [cc] | tumor volume of one specific animal, day 3 [cc] | tumor volume of one specific animal, day 6 (day 6) [cc] | tumor volume of one specific animal, day 10 (day 10) [cc] | tumor volume of one specific animal, day 11 [cc] | total volume reduction in one specific animal [%] | volume of one single tumor in one animal, day 6 (single tumor that spontaneously increased between days 6 and 10, day 6) [cc] | volume of one single tumor in one animal, day 10 (single tumor that spontaneously increased between days 6 and 10, day 10) [cc] | volume of one single tumor in one animal, day 11 (single tumor that spontaneously increased between days 6 and 10, day 11) [cc] | tumor volume of a third animal with 4 tumors at start of regimen (third animal, not in the group total, baseline) [cc] | tumor volume of a third animal with 4 tumors, by day 6 (third animal, not in the group total, day 6, animal died thereafter of unrelated chronic murine pneumonia) [cc] |
| --- | --- | --- | --- | --- | --- | --- | --- | --- | --- | --- | --- | --- | --- | --- | --- | --- |
| CCNC(=O)[C@@H]1CCCN1C(=O)[C@H](CCCNC(=N)N)NC(=O)[C@H](CC(C)C)NC(=O)[C@@H](Cc1ccc(O)cc1)NC(=O)[C@H](Cc1ccc(O)cc1)NC(=O)[C@H](CO)NC(=O)[C@H](Cc1c[nH]c2ccccc12)NC(=O)[C@H](Cc1c[nH]cn1)NC(=O)[C@@H]1CCC(=O)N1 [Compound B] | 37.5 | 24.9 | 16.3 | 15.0 | 43.3 | 3.6 | 2.5 | 1.33 | 0.73 | 0.125 | 96.5 |  |  |  |  |  |
| CCNC(=O)[C@@H]1CCCN1C(=O)[C@H](CCCNC(=N)N)NC(=O)[C@H](CC(C)C)NC(=O)[C@@H](Cc1c[nH]c2ccccc12)NC(=O)[C@H](Cc1ccc(O)cc1)NC(=O)[C@H](CO)NC(=O)[C@H](Cc1c[nH]c2ccccc12)NC(=O)[C@H](Cc1c[nH]cn1)NC(=O)[C@@H]1CCC(=O)N1 [Compound A] | 26.7 | 18.6 | 8.7 | 8.7 | 39.2 | 11.65 | 7.5 | 8.1 | 3.8 | 3.76 | 67.7 |  |  |  |  |  |
| CCNC(=O)[C@@H]1CCCN1C(=O)[C@H](CCCNC(=N)N)NC(=O)[C@H](CC(C)C)NC(=O)[C@@H](Cc1ccccc1)NC(=O)[C@H](Cc1ccc(O)cc1)NC(=O)[C@H](CO)NC(=O)[C@H](Cc1c[nH]c2ccccc12)NC(=O)[C@H](Cc1c[nH]cn1)NC(=O)[C@@H]1CCC(=O)N1 [Compound C] | 10.1 | 5.4 | 6.4 | 5.5 | 13.4 |  |  |  |  |  |  | 0.38 | 4.6 | 3.0 | 28.1 | 15 |
